Experimental data taken from patent US20150231093A1, “METHODS AND COMPOSITIONS FOR COUNTERMEASURES AGAINST RADIATION” (THE UNIVERSITY OF CHICAGO, priority 2014, published 2015).

Key:
[1] = 250 mg/kg i.p. 24 h following 7 Gy, counted 13 days after irradiation
[2] = test system: mouse splenocytes; settings: i.p. 24 h following 7 Gy; amifostine 400 mg/kg, metformin 250 mg/kg
[3] = test system: SA-NH murine sarcoma cells; assay: In vitro cell survival (colony) assay after 4 Gy, SA-NH cells; format: cell-based; settings: 4 mM, 30 min prior to 4 Gy
Excerpt: (§1) In Vitro Cell Survival Assay. […] Unirradiated cells served as controls. Immediately following irradiation, cells were counted, diluted, and known numbers seeded into 100-mm tissue culture dishes to allow the development of 50 to 150 colonies per dish. Colonies were stained with 20% crystal violet and scored 12 days after plating.

[4] = test system: human microvascular endothelial cells (HMEC); assay: In vitro cell survival (colony) assay after 4 Gy, HMEC; format: cell-based; settings: 4 mM, 30 min prior to 4 Gy
Excerpt: as §1

[5] = test system: mouse embryo fibroblasts (MEF); assay: In vitro cell survival (colony) assay after 4 Gy, MEF; format: cell-based; settings: 4 mM, 30 min prior to 4 Gy
Excerpt: as §1

[6] = Tolerability of the i.p. doses used in mice
Protocol: For in vivo studies, mice were injected i.p. with a final volume of 0.2 ml for all single and drug combinations used. […] Captopril was injected at a final concentration of 200 mg/kg body weight, MESNA was injected at a final concentration of 300 mg/kg body weight, and NAC was injected at a concentration of 400 mg/kg body weight.

CN(C)C(=N)NC(=N)N.Cl [Metformin, 1,1-Dimethylbiguanide hydrochloride]
average number of spleen nodules [1]: 18
protection of irradiated animals (in words) [2]: significantly protected

NCCCNCCS [WR1065, 2-[(aminopropyl)amino] ethanethiol]
protection ratio [3]: 1.6
protection ratio [4]: 1.8
protection ratio [5]: 1.9

CC(=O)N[C@@H](CS)C(=O)O [NAC, N-acetyl-cysteine]
toxicity of dose used ([6]; 400 mg/kg body weight): non-toxic

C[C@H](CS)C(=O)N1CCC[C@H]1C(=O)O [Captopril, captopril]
toxicity of dose used ([6]; 200 mg/kg body weight): non-toxic

O=S(=O)([O-])CCS.[Na+] [MESNA, sodium 2-sulfanylethanesulfonate]
toxicity of dose used ([6]; 300 mg/kg body weight): non-toxic
